Measurements as given in patent US7531505B2, “Compositions and methods for promoting attachment of cells of endothelial cell lineage to medical devices” (Affinergy, Inc., priority 2006, dated 2009).
Like-named read-outs stand apart in the source and are kept apart here. One block for each substance: values may come before it.

Assays:
[1] = test system: human coronary endothelial cells, porcine coronary endothelial cells, and endothelial progenitor cells; experiment: FACS binding of biotin-tagged peptides to cells of endothelial cell lineage in whole blood; type: cell-based, human or Porcine
Protocol: Several of the endothelial-binding domains listed in Table 3 with desirable binding specificities (e.g., SEQ ID NOs: 9-18, 23-28, 30-32, and 35) were further characterized for binding to various cell types in whole blood by FACS, by synthesizing the peptides with a C-terminal biotin tag. Cells were harvested from cell culture flasks using trypsin/EDTA. The cells were neutralized with complete (serum-containing) media and allowed to recover at 37° C. for at least 20 minutes. Each cell type was labeled with its corresponding antibody, as set forth in Table 4, below, and incubated for 20 minutes at room temperature.
The antibody-labeled cells were rinsed twice by centrifugation using washing buffer (HBSS+1% BSA+0.1% sodium azide, sterile-filtered). One hundred (100) μL of whole blood was aliquotted into each well of a deep-well polypropylene plate. Peptides were added to each well to achieve the desired peptide concentration. Minimal volumes of cells (typically 10 μL of cells or approximately 50,000 cells) were added to each well. […] The samples were transferred to an analysis plate and analyzed for cell binding using FACS. In the analysis, controls for each cell type (with relevant antibody as per Table 4, but containing no peptide) were used to assess background fluorescence. […]

[2] = test system: cells of endothelial cell lineage; experiment: Additional assays characterizing binding specificity of endothelial-binding domains (EC50); type: cell-based; details: read-out: EC50 of endothelial-binding domain
Description: In some embodiments, a binding domain that binds specifically to a particular surface, material or composition binds at least 10%, 20%, 30%, 40%, 50%, 60%, 70%, 80%, 90%, 100%, 200%, 300%, 400%, 500%, or a higher percentage, than the binding domain binds to an appropriate control such as, for example, a different material or surface, or a protein typically used for such comparisons such as bovine serum albumin. For example, binding specificity can determined by an assay in which quantitated is a signal (e.g., fluorescence, or colorimetric) representing the relative amount of binding between a peptide and target cells, as compared to peptide and non-target cells. […] In a preferred embodiment, the binding domain has binding specificity that is additionally characterized by an EC50 of 10 μM or less, and more preferably less than 1 μM. The EC50 can be determined using any number of methods known in the art, such as by generating a concentration response curve from a binding assay in which the concentration of the peptide is titered with a known amount of material or cells for which the peptide has binding specificity (see, for example, methods described in Examples 2 and 3 herein). In such case, the EC50 represents the concentration of peptide producing 50% of the maximal binding observed for that peptide in the assay. […]

[3] = ELISA of relative binding strength of biotin-tagged peptides to stainless steel stents
Protocol: As a specific illustrative example, nonspecific binding sites in wells containing stainless steel stent material in polystyrene microtiter plates were blocked with a buffer containing 1% bovine serum albumin for 2 hours at room temperature. The wells and stainless steel stent material were then washed three times with PBS-T. The plate was incubated for 1 hour at room temperature with shaking at 50 rpm. Each of 17 different phage display libraries was diluted in PBS+1% BSA and was added at a concentration of 10^10 pfu/ml in a total volume of 250 μl. After a 1 hour incubation at room temperature with shaking at 50 rpm, 70 μl of bovine serum was added, and then the plates were incubated at 37° C. with shaking for 1 hour. Unbound phage were removed by washing 3 time with 300 μl of PBS-T. After the final wash, phage bound to stents were used to infect E. coli cells. The infected cells were incubated in 96 deep-well plates, containing 1 ml of growth medium (e.g., 2xYT+5 μg/ml tetracycline) per well, at 37° C. overnight with shaking. Amplified phage-containing supernatant from each well was harvested by centrifugation. Second, third, and fourth rounds of selection were performed in a similar manner to that of the first round, using 150 μl of amplified phage supernatant from the previous round as input, and diluted with 150 μl of PBS-T+1% BSA. From the fourth round of selection, 340 individual clonal phage were then isolated and tested by plating out dilutions of phage pools to obtain single plaques. To detect phage that specifically bound to a metal such as stainless steel, conventional ELISAs were performed using an anti-M13 phage antibody conjugated to horseradish-peroxidase, followed by the addition of chromogenic agent ABTS (2,2′-azinobis(3-ethylbenzthiazoline-6-sulfonic acid). Relative binding strengths of the phage were determined by testing serial dilutions of the phage for binding to stainless steel in an ELISA, using an anti-M13 phage antibody conjugated to horseradish-peroxidase, followed by the addition of chromogenic agent ABTS, and measuring the absorbance at 405 nm. In the ELISA for determining relative binding strengths, the phage titrations were done in either buffer alone, or buffer containing 20% whole blood. The DNA sequence encoding peptides that specifically bound a metallic surface was determined.
Therefore, to determine if the binding specificity for stainless steel is primarily due to the amino acids in the C-terminal half of the amino acid sequence, or if the N-terminal region also impacts binding, peptides consisting essentially of amino acid sequences illustrated as SEQ ID NO:3 and SEQ ID NO:4 were synthesized. The peptides, as listed in Table 2 as SEQ ID NOs: 1, 3, and 4 were each synthesized with a biotin tag, and then assayed for relative binding strengths by ELISA using similar methods as that used for determining the relative binding strengths of phage displaying the peptides (as previously described herein). In this assay, serial dilutions (ranging from 0 μM to 10 μM) of each of the peptides were incubated with the stainless steel stents, washed with PBS-T, and relative binding specificity was quantitated by detecting the colorometric signal resulting from the reaction of streptavidin-alkaline phosphatase (the streptavidin portion binding to the biotin-labeled peptides) with chromogenic substrate. The EC50 was determined from the titration curve. […]

[4] = ELISA of relative binding strength in buffers from pH 2 to pH 12; details: peptide 1 μM, buffers pH 2 to pH 12
Protocol: For determining the effect of pH on binding specificity, the assay for determining relative binding strengths (by ELISA) was performed in the presence of different buffers, varying in pH in a range of from pH 2 to pH 12. For example, a buffer containing glycine and water was adjusted to pH2 using HCl; an acetate buffer was adjusted to pH 4.0 (ionic strength of about 0.001 M); a phosphate buffer (NaH2PO4) was adjusted to pH 6.0 (ionic strength of about 0.012M); a phosphate buffer (NaH2PO4) was adjusted to pH 7.0 (ionic strength of about 0.019M); a tris buffer was adjusted to pH 8.0 (ionic strength of about 0.006M); an ethanolamine buffer was adjusted to pH 10.0 (ionic strength of about 0.003M); and a phosphate buffer (NaH2PO4) was adjusted to pH 12.0 (ionic strength of about 0.044M). The final concentration of each peptide in this assay was 1 μM. Tested in this assay were surface-binding domains comprising a peptide consisting essentially of the amino acid sequence illustrated as SEQ ID NO:3, and the multimers thereof (divalent version (SEQ ID NO:7) and tetravalent version (SEQ ID NO:8)).

endothelial cells = experiment: Adherence of endothelial cells to coated stainless steel disks (luminescent ATP read-out); type: cell-based; details: coating at 10 μM for 1 hour; 25,000 endothelial cells, 10% bovine serum, 15 minutes; controls uncoated, SEQ ID NO:3 or irrelevant peptide
Protocol: The biofunctional coating composition comprising an amino acid sequence illustrated as SEQ ID NO:47 was then tested for its ability to selectively adhere cells of endothelial cell lineage to a metallic surface of a medical device. In this example, stainless steel disks were used to represent a metallic surface of a medical device. The disks were contacted with a buffered solution containing the biofunctional coating composition at a concentration of 10 μM for 1 hour at room temperature. As controls for non-specific binding, disks were either uncoated, or coated with the surface-binding domain comprising a peptide consisting essentially of an amino acid sequence of SEQ ID NO:3, or an irrelevant peptide (having no known binding specificity for metal or stainless steel or endothelial cells). The disks were washed with PBS, and then 25,000 endothelial cells were added in cell media containing 10% bovine serum, and incubated at room temperature for 15 minutes. The disks were washed in PBS, and the cells were then quantitated using a commercial luminescent cell viability assay system that measures intracellular ATP using a luminescent read-out. The luminescence was detected using a plate reader.

[5] = biotin-tagged peptide, serial dilutions 0 μM to 10 μM, stainless steel stents, read-out: EC50 expressed in nanomoles

Substance: AGSSSSVSFVAAAGSAV [SEQ ID NO:14]
binding preference between endothelial progenitor cells and endothelial cells [1]: prefer binding to endothelial progenitor cells as compared to endothelial cells

Substance: SEQ ID NO:7 (SSHRTNHKKNNPKKKNKTRGSSHRTNHKKNNPKKKNKTRG)
optimum pH for binding [4]: 7.0 pH

Substance: SSFYGEVGYVGASLYAGGASSRG-PEG-SSHRTNHKKNNPKKKNKTRG [SEQ ID NO:47]
number of endothelial cells bound to coated stainless steel disks compared with controls (endothelial cells): several fold increase

Substance: VVFAASGVAADAGWSVS [SEQ ID NO:32]
binding preference between endothelial progenitor cells and endothelial cells [1]: preference for binding endothelial cells

Continued, values first:

EC50 [2]: < 10 µM
Substance: FYGEVGYVGASLYAGGAS [SEQ ID NO:19]

EC50 [3, 5]: < 250 nM
Substance: NHTISKNHKKKNKNSNKTR [SEQ ID NO:4]

EC50 [3, 5]: < 250 nM
Substance: SGVVDAGVVAEDGVSGEASRSSHRTNHKKNNPKKKNKTR [SEQ ID NO:1]

optimum pH for binding [4]: 7.0 pH
EC50 [3, 5]: < 50 nM
effect of ethylene oxide sterilization on relative binding specificity for stainless steel ([3]; ethylene oxide 642 mg/L for 2 hours, compared with unsterilized peptide): minimal to no effect
EC50 ([3]; peptide subjected to ethylene oxide sterilization (642 mg/L for 2 hours), read-out: EC50 for binding to stainless steel after ethylene oxide sterilization): < 50 nM
Substance: SSHRTNHKKNNPKKKNKTR [SEQ ID NO:3]
